Assay results published in the supplement of paper PMC8988213.
Structures can show the parent of a compound that is named as a salt.

Assays:
[1] = tested on: ID188 patient-derived PDAC 2D line (pre-FOLFIRINOX); assay: normalised area under dose-response curve (viability relative to DMSO, 7 doses up to 10 µM) (fraction (AUC)); higher = less sensitive (more viability retained); settings: 72 h; top dose: 10 µM
Experimental: (§1)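 Patient-derived 2D PDAC cells (ID188 pre-FOLFIRINOX, passage 5+27; ID211 post-FOLFIRINOX, passage 9+11), 1,500-3,000 cells/well in 96-well plates, were treated with a 415-compound Selleck library in seven concentrations (3-fold dilution series, top 10 µM) for 72 h. Viability was read by CellTiter-Glo ATP luminescence, normalised to the DMSO control, and the area under the dose-response curve was computed with the GRmetrics R package; a lower AUC means higher sensitivity.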

[2] = tested on: ID211 patient-derived PDAC 2D line (post-FOLFIRINOX); assay: as above; settings: 72 h; top dose: 10 µM
Experimental: as §1

| SMILES | normalised area under dose-response curve [1] | normalised area under dose-response curve [2] |
| --- | --- | --- |
| O=C(O)c1ccc(N2C(=O)/C(=C\c3ccc(-c4ccc([N+](=O)[O-])cc4)o3)C=C2c2ccccc2)cc1 [4E1RCat] | 0.946 | 0.895 |
| Cc1sc2c(c1C)C(c1ccc(Cl)cc1)=N[C@@H](CC(=O)OC(C)(C)C)c1nnc(C)n1-2 [(+)-JQ1] | 0.842 | 0.652 |
| COc1cc2c(cc1OCCCN1CCCC1)N=C(N)C21CCC1 [A-366] | 0.983 | 0.895 |
| COc1ccc(S(=O)(=O)Nc2cccnc2Nc2ccc(O)cc2)cc1 [ABT-751 (E7010)] | 0.794 | 0.644 |
| Cc1ccccc1C(C(=O)NC1CCCCC1)N(C(=O)Cn1ccnc1C)c1cccc(F)c1 (stereo not given) [AGI-5198] | 0.972 | 0.804 |
| O=C(Nc1cccc(C(F)(F)F)c1)Nc1cc(S(=O)(=O)NC2CC2)ccc1-c1ccsc1 [AGI-6780] | 0.906 | 0.842 |
| NC(=O)c1ncn([C@@H]2O[C@H](CO)[C@@H](O)[C@H]2O)c1N [AICAR (Acadesine)] | 0.934 | 0.887 |
| COCC1(CO)C(=O)C2CCN1CC2 (stereo not given) [APR-246 (PRIMA-1MET)] | 0.947 | 0.86 |
| O=C(NC1CCNCC1)c1n[nH]cc1NC(=O)c1c(Cl)cccc1Cl [AT7519 HCl] | 0.725 | 0.673 |
| CC(=O)N1CCC[C@H]1C(=O)N[C@@H](Cc1cnc[nH]1)C(=O)N[C@@H](CO)C(=O)N[C@@H](CS)C(=O)N[C@@H](CC(N)=O)C(N)=O [ATN-161 (Ac-PHSCN-NH2)] | 1 | 0.858 |
| COc1cc(N2CCN(C)CC2)ccc1Nc1nccc(-c2cn(C)c3cnccc23)n1 [AZ191] | 0.971 | 0.867 |
| Cc1ccc(NC(=O)c2cccc(C(C)(C)C#N)c2)cc1Nc1ccc2ncn(C)c(=O)c2c1 [AZ 628] | 0.898 | 0.634 |
| N[C@@H]1CCCN(c2c(/C=C3\SC(=O)NC3=O)cccc2-c2ccccc2)C1 [AZD1208] | 0.958 | 0.841 |
| Cc1cc(Nc2nc(N[C@@H](C)c3ncc(F)cn3)ncc2Cl)[nH]n1 [AZD1480] | 0.952 | 0.766 |
| Cc1[nH]nc(C(F)(F)F)c1Cc1sc2c(c1C(=O)N1C[C@](C)(O)CO1)c(=O)n(C)c(=O)n2C(C)C [AZD3965] | 0.937 | 0.89 |
| COc1cc(CCc2cc(NC(=O)c3ccc(N4CC(C)NC(C)C4)cc3)n[nH]2)cc(OC)c1 (stereo not given) [AZD4547] | 0.998 | 0.829 |
| COc1nnc2ccc(N3CCC(c4ccc(OCCN5CCN(C)C(=O)[C@H]5C)cc4)CC3)nn12 [AZD5153] | 0.723 | 0.59 |
| Cc1cc([C@@H](C)Nc2ccccc2C(=O)O)c2nc(N3CCOCC3)cc(=O)n2c1 [AZD6482] | 0.862 | 0.835 |
| C[C@@H]1COCCN1c1cc(C2([S@](C)(=N)=O)CC2)nc(-c2cc[nH]c3nccc2-3)n1 [AZD6738] | 0.805 | 0.749 |
| NC(=O)Nc1cc(-c2cccc(F)c2)sc1C(=O)N[C@H]1CCCNC1 [AZD7762] | 0.558 | 0.507 |
| C=CCn1c(=O)c2cnc(Nc3ccc(N4CCN(C)CC4)cc3)nc2n1-c1cccc(C(C)(C)O)n1 [Adavosertib(MK-1775)] | 0.582 | 0.662 |
| CN(C)C/C=C/C(=O)Nc1cc2c(Nc3ccc(F)c(Cl)c3)ncnc2cc1O[C@H]1CCOC1 [Afatinib (BIBW2992) Dimaleate] | 0.855 | 0.58 |
| CCc1cc2c(cc1N1CCC(N3CCOCC3)CC1)C(C)(C)c1[nH]c3cc(C#N)ccc3c1C2=O [Alectinib hydrochloride] | 0.779 | 0.789 |
| COc1cc(Nc2ncc3c(n2)-c2ccc(Cl)cc2C(c2c(F)cccc2OC)=NC3)ccc1C(=O)O [Alisertib (MLN8237)] | 0.799 | 0.88 |
| O=c1[nH]cnc2[nH]ncc12 [Allopurinol Sodium] | 0.951 | 0.843 |

| SMILES | normalised area under dose-response curve [1] | normalised area under dose-response curve [2] |
| --- | --- | --- |
| Cn1c(=O)cc(N2CCC[C@@H](N)C2)n(Cc2ccccc2C#N)c1=O [Alogliptin] | 0.952 | 0.817 |
| Cc1nc(NC(=O)N2CCC[C@H]2C(N)=O)sc1-c1ccnc(C(C)(C)C(F)(F)F)c1 [Alpelisib (BYL719)] | 0.892 | 0.696 |
| CC(C)(C#N)c1cc(Cn2cncn2)cc(C(C)(C)C#N)c1 [Anastrozole] | 0.939 | 0.799 |
| COc1cc(OC)c2c(=O)[nH]c(-c3cc(C)c(OCCO)c(C)c3)nc2c1 [Apabetalone (RVX-208)] | 0.949 | 0.837 |
| Cc1c(CN2CCN(C(=O)[C@H](C)O)CC2)sc2c(N3CCOCC3)nc(-c3cnc(N)nc3)nc12 [Apitolisib (GDC-0980, RG7422)] | 0.606 | 0.54 |
| COc1cc(C(C)=O)ccc1O [Apocynin] | 0.915 | 0.816 |
| O=C1C(=O)N(Cc2ccc(Cl)c(Cl)c2)c2ccccc21 [Apoptosis Activator 2] | 0.952 | 0.969 |
| CNC(=O)c1ccccc1Sc1ccc2c(/C=C/c3ccccn3)n[nH]c2c1 [Axitinib] | 0.898 | 0.857 |
| Nc1ncn([C@@H]2O[C@H](CO)[C@@H](O)[C@H]2O)c(=O)n1 [Azacitidine] | 0.855 | 0.977 |
| Nc1nccc(Oc2ccc3c(C(=O)Nc4cccc(C(F)(F)F)c4)cccc3c2)n1 [BAW2881 (NVP-BAW2881)] | 0.885 | 0.961 |
| Cc1ccc(S(=O)(=O)/C=C/C#N)cc1 [BAY 11-7082] | 0.957 | 0.839 |
| Cc1cc(-c2nc(-c3ccc(OC(F)(F)F)cc3)no2)nn1Cc1ccnc(N2CCN(C3CC3)CC2)c1 [BAY 87-2243] | 0.574 | 0.794 |
| COc1ccc(-c2cc3nccn3c(Nc3ncccc3C(N)=O)n2)cc1OC [BAY-61-3606] | 0.871 | 0.79 |
| Cc1c(NC(=O)c2cc(C(N)=O)nc3cc(F)ccc23)c(C(F)(F)F)nn1Cc1ccc(C#N)cc1 [BAY-876] | 0.826 | 0.718 |
| O=c1[nH]nc(Sc2ncc([N+](=O)[O-])s2)n1-c1ccc2c(c1)OCCO2 [BI-78D3] | 0.965 | 0.811 |
| CC(C)CCN1c2nc(Nc3cc(F)c(O)c(F)c3)ncc2N(C)C(=O)C1C (stereo not given) [BI-D1870] | 0.925 | 0.876 |
| CNC(=O)c1cc(Oc2ccc3nc(N[C@@H]4CCCC[C@H]4O)sc3c2)ccn1 [BLZ945] | 0.905 | 0.914 |
| COc1ccc2c(c1)c(CC(=O)N1CCOCC1)c(C)n2C(=O)c1ccc(Cl)cc1 [BML-190] | 0.958 | 1.01 |
| COc1nc(OCc2cccc(-c3ccccc3)c2C)ccc1CNCCNC(C)=O [BMS202 (PD-1PD-L1 inhibitor 2)] | 0.99 | 0.905 |
| O=C(Cc1ccccc1)Nc1nnc(CCSCCc2nnc(NC(=O)Cc3ccccc3)s2)s1 [BPTES] | 0.861 | 0.854 |
| Cc1nn(C)c2c1C(c1ccc(C(F)(F)F)cc1)C(C#N)=C(N)O2 (stereo not given) [BQU57] | 0.933 | 0.869 |
| COC(=O)c1ccc2c(c1)nc(NC(=O)c1ccccc1)n2CCCc1ccccc1 [BRD4770] | 0.887 | 0.836 |
| O=C(NCCCNc1nc(Nc2cccc(NC(=O)N3CCCC3)c2)ncc1I)c1cccs1 [BX-795] | 0.885 | 0.883 |
| O=C(Nc1cccc(Nc2ncc(Br)c(NCCc3cnc[nH]3)n2)c1)N1CCCC1 [BX-912] | 0.595 | 0.893 |
| Cc1ccc(NC(=O)c2ccc(CN3CC[C@H](N(C)C)C3)c(C(F)(F)F)c2)cc1Nc1nccc(-c2cncnc2)n1 [Bafetinib (INNO-406)] | 0.906 | 0.841 |
